Results taken from patent US9907737B2, “Composition comprising ferulic acid ethyl ester and aryl alkanol” (L'AIR LIQUIDE, SOCIETE ANONYME POUR L'ETUDE ET …, priority 2013, dated 2018).
Marks after values point to notes of the source that are not given here.

How the values were obtained:
S. aureus ATCC: 6538 = assay: Bacterial count reduction test (method 1), S. aureus; format: cell-based, Staphylococcus aureus
Experimental: (§1) Method 1: Bacterial Count Reduction Test
(§2) The aim of this bacterial count reduction test is to determine suitable preservatives and reaction times for samples injected in the laboratory.
(§3) Staphylococcus aureus, Escherichia coli or Pseudomonas aeruginosa, Candida albicans, Aspergillus brasiliensis
(§4) From a 24-hour CS-angular agar culture (I subculture) of Staphylococcus aureus/Escherichia coli 24-hour CSL-cultures (II subculture) are created. The incubation is carried out at 37° C. The titer of the bacterial suspension is about 10^9 CFU/ml.
(§5) The titres of the respectively produced test organism suspensions are determined by means of a dilution series in physiological NaCl and recorded.
(§6) The samples are displaced with different concentrations of suitable preservatives. For each test bacterium a dilution series is required. The samples are injected individually with the respective test organism suspension and stirred well:
(§7) 25 g samples=0.1 ml bacterial suspension
(§8) 50 g samples=0.2 ml bacterial suspension.
(§9) After the indicated reaction times the samples are firstly stirred homogenously with a sterile glass rod and then spread onto CSA or SA agar. The bacteria samples are spread onto CSA and incubated for 48 hours at 37° C. The mould and yeast samples are spread onto SA agar and incubated for 48 hours at 37° C. (Candida albicans) and at 25° C. (Aspergillus brasiliensis).

E. coli ATCC: 11229 = assay: Bacterial count reduction test (method 1), E. coli; format: cell-based, Escherichia coli; conditions: o/w cream, initial bacterial count 1.3 × 10^9
Experimental: as §1, §2, §3, §4, §5, §6, §7, §8, §9

C. albicans ATCC: 10231 = assay: Bacterial count reduction test (method 1), C. albicans; format: cell-based, Candida albicans
Experimental: as §1, §2, §3
A 4 day old Candida albicans culture on SA-agar (II subculture) is washed with 5 ml physiological NaCl and adjusted according to a barium sulphate standard (cf. DVG Guidelines). The titer of the Candida albicans suspension is 10^8 CFU/ml.
as §5, §6, §7, §8, §9

[1] = tested on: A. brasiliensis ATCC: 16404; assay: Bacterial count reduction test (method 1), A. brasiliensis; format: cell-based, Aspergillus brasiliensis
Experimental: as §1, §2, §3
A 7 to 14 days old Aspergillus brasiliensis culture on SA agar (25° C.±1° C.) is washed with 5 ml physiological NaCl, filtered by a glass funnel with glass wool and filled with physiological NaCl to 100 ml. The titre of the Aspergillus brasiliensis suspension is about 10^7 CFU/ml.
as §5, §6, §7, §8, §9

P. aeruginosa ATCC: 9027 = assay: Bacterial count reduction test (method 1), P. aeruginosa; format: cell-based, Pseudomonas aeruginosa; conditions: o/w-Lotion, initial bacterial count 1.2 × 10^9
Experimental: as §1, §2, §3, §5, §6, §7, §8, §9

[2] = Water solubility (statement); format: physicochemical
[3] = Antimicrobial effect (preliminary work, general statements); conditions: preliminary work / general statement
[4] = o/w cream, initial bacterial count 1 × 10^9
[5] = o/w-Lotion, initial bacterial count 2.2 × 10^9
[6] = o/w cream, initial bacterial count 4.1 × 10^8
[7] = o/w-Lotion, initial bacterial count 5.4 × 10^8
[8] = o/w cream, initial bacterial count 1.5 × 10^7
[9] = o/w-Lotion, initial bacterial count 7.7 × 10^7

Structure (SMILES) | Growth of S. aureus ATCC: 6538 after 24 hours (S. aureus ATCC: 6538; [4]) | Growth of S. aureus ATCC: 6538 after 72 hours (S. aureus ATCC: 6538; [4]) | Growth of S. aureus ATCC: 6538 after 168 hours (S. aureus ATCC: 6538; [4]) | Growth of S. aureus ATCC: 6538 after 336 hours (S. aureus ATCC: 6538; [4]) | Growth of S. aureus ATCC: 6538 after 24 hours (S. aureus ATCC: 6538; [5]) | Growth of S. aureus ATCC: 6538 after 72 hours (S. aureus ATCC: 6538; [5]) | Growth of S. aureus ATCC: 6538 after 168 hours (S. aureus ATCC: 6538; [5]) | Growth of S. aureus ATCC: 6538 after 336 hours (S. aureus ATCC: 6538; [5]) | Growth of E. coli ATCC: 11229 after 24 hours (E. coli ATCC: 11229) | Growth of E. coli ATCC: 11229 after 72 hours (E. coli ATCC: 11229) | Growth of E. coli ATCC: 11229 after 168 hours (E. coli ATCC: 11229) | Growth of E. coli ATCC: 11229 after 336 hours (E. coli ATCC: 11229) | Growth of C. albicans ATCC: 10231 after 24 hours (C. albicans ATCC: 10231; [6]) | Growth of C. albicans ATCC: 10231 after 72 hours (C. albicans ATCC: 10231; [6]) | Growth of C. albicans ATCC: 10231 after 168 hours (C. albicans ATCC: 10231; [6]) | Growth of C. albicans ATCC: 10231 after 336 hours (C. albicans ATCC: 10231; [6]) | Growth of C. albicans ATCC: 10231 after 24 hours (C. albicans ATCC: 10231; [7]) | Growth of A. brasiliensis ATCC: 16404 after 24 hours [1, 8] | Growth of A. brasiliensis ATCC: 16404 after 72 hours [1, 8] | Growth of A. brasiliensis ATCC: 16404 after 168 hours [1, 8] | also measured
CCCCC(CC)COC(=O)/C=C/c1ccc(O)c(OC)c1 (centres unmarked) [0.1% ferulic acid-2-ethylhexylester, ferulic acid (2-ethyl hexyl) ester] | ++++ (Massive growth About 10^5) | ++++ (Massive growth About 10^5) | ++++ (Massive growth About 10^5) | +++ (Heavy growth About 10^4) | R (Surface covered About 10^6) | ++++ (Massive growth About 10^5) | ++++ (Massive growth About 10^5) | ++++ (Massive growth About 10^5) | R (Surface covered About 10^6) | ++++ (Massive growth About 10^5) | R (Surface covered About 10^6) | R (Surface covered About 10^6) | ++++ (Massive growth About 10^5) | ++++ (Massive growth About 10^5) | ++++ (Massive growth About 10^5) | ++++ (Massive growth About 10^5) | R (Surface covered About 10^6) | R (Surface covered About 10^6) | ++++ (Massive growth About 10^5) | ++++ (Massive growth About 10^5) | Growth of C. albicans ATCC: 10231 after 72 hours (C. albicans ATCC: 10231; [7]): R (Surface covered About 10^6); Growth of C. albicans ATCC: 10231 after 168 hours (C. albicans ATCC: 10231; [7]): ++++ (Massive growth About 10^5); Growth of C. albicans ATCC: 10231 after 336 hours (C. albicans ATCC: 10231; [7]): ++++ (Massive growth About 10^5); Growth of A. brasiliensis ATCC: 16404 after 336 hours [1, 8]: ++++ (Massive growth About 10^5); Growth of A. brasiliensis ATCC: 16404 after 24 hours [1, 9]: ++++ (Massive growth About 10^5); Growth of A. brasiliensis ATCC: 16404 after 72 hours [1, 9]: ++++ (Massive growth About 10^5); Growth of A. brasiliensis ATCC: 16404 after 168 hours [1, 9]: ++++ (Massive growth About 10^5); Growth of A. brasiliensis ATCC: 16404 after 336 hours [1, 9]: ++++ (Massive growth About 10^5); Growth of P. aeruginosa ATCC: 9027 after 24 hours (P. aeruginosa ATCC: 9027): +++ (Heavy growth About 10^4); Growth of P. aeruginosa ATCC: 9027 after 72 hours (P. aeruginosa ATCC: 9027): ++++ (Massive growth About 10^5); Growth of P. aeruginosa ATCC: 9027 after 168 hours (P. aeruginosa ATCC: 9027): ++++ (Massive growth About 10^5); Growth of P. aeruginosa ATCC: 9027 after 336 hours (P. aeruginosa ATCC: 9027): ++++ (Massive growth About 10^5)
CCOC(=O)/C=C/c1ccc(O)c(OC)c1 [0.1% ferulic acid-ethyl ester, ferulic acid ethyl ester] | ++++ (Massive growth About 10^5) | R (Surface covered About 10^6) | R (Surface covered About 10^6) | ++++ (Massive growth About 10^5) | ++++ (Massive growth About 10^5) | ++++ (Massive growth About 10^5) | +++ (Heavy growth About 10^4) | +++ (Heavy growth About 10^4) | R (Surface covered About 10^6) | R (Surface covered About 10^6) | ++++ (Massive growth About 10^5) | R (Surface covered About 10^6) | R (Surface covered About 10^6) | R (Surface covered About 10^6) | R (Surface covered About 10^6) | R (Surface covered About 10^6) | ++++ (Massive growth About 10^5) | ++++ (Massive growth About 10^5) | ++++ (Massive growth About 10^5) | ++++ (Massive growth About 10^5) | Growth of C. albicans ATCC: 10231 after 72 hours (C. albicans ATCC: 10231; [7]): ++++ (Massive growth About 10^5); Growth of C. albicans ATCC: 10231 after 168 hours (C. albicans ATCC: 10231; [7]): ++++ (Massive growth About 10^5); Growth of C. albicans ATCC: 10231 after 336 hours (C. albicans ATCC: 10231; [7]): ++++ (Massive growth About 10^5); Growth of A. brasiliensis ATCC: 16404 after 336 hours [1, 8]: +++ (Heavy growth About 10^4); Growth of A. brasiliensis ATCC: 16404 after 24 hours [1, 9]: ++ (Moderate growth About 10^3); Growth of A. brasiliensis ATCC: 16404 after 72 hours [1, 9]: +++ (Heavy growth About 10^4); Growth of A. brasiliensis ATCC: 16404 after 168 hours [1, 9]: +++ (Heavy growth About 10^4); Growth of A. brasiliensis ATCC: 16404 after 336 hours [1, 9]: ++++ (Massive growth About 10^5); Growth of P. aeruginosa ATCC: 9027 after 24 hours (P. aeruginosa ATCC: 9027): ++++ (Massive growth About 10^5); Growth of P. aeruginosa ATCC: 9027 after 72 hours (P. aeruginosa ATCC: 9027): ++++ (Massive growth About 10^5); Growth of P. aeruginosa ATCC: 9027 after 168 hours (P. aeruginosa ATCC: 9027): ++++ (Massive growth About 10^5); Growth of P. aeruginosa ATCC: 9027 after 336 hours (P. aeruginosa ATCC: 9027): ++++ (Massive growth About 10^5); Water solubility, in words [2]: poor water solubility; Antimicrobial effect, in words [3]: much weaker antimicrobial effect than ferulic acid itself
OCCCc1ccccc1 [0.75% 3-phenyl-propanol-1, 3-phenyl-1-propanol] | ++++ (Massive growth About 10^5) | ++++ (Massive growth About 10^5) | +++ (Heavy growth About 10^4) | – | – | – | – | – | ++ (Moderate growth About 10^3) | – | – | – | ++++ (Massive growth About 10^5) | ++++ (Massive growth About 10^5) | + (Slight growth About 10^2) | – | – | ++++ (Massive growth About 10^5) | +++ (Heavy growth About 10^4) | + (Slight growth About 10^2) | Antimicrobial effect, in words [3]: good anti-microbial effect
